Here are results for 18 compounds from US20260345795A1, “MULTIVALENCY FOR ENZYME INHIBITION” (Indiana University Research and Technology Corporation, priority 2022, published 2026).

In one experiment the target is tPA (Homo sapiens, UniProt P00750). Description: tPA inhibition assay with chromogenic tPA substrate S-2288, Dixon plot analysis. The class given is biochemical. Conditions: role: inhibitor; for Ki / tPA inhibition relative to another inhibitor: tPA 75 nM, S-2288 100-500 μM; for Ki: PBS pH 7.4, read-out: Inhibition constant (Ki); for tPA inhibition compared to plasmin: tPA vs plasmin. The protocol: Inhibition assays were performed using a fixed tPA concentration of 75 nM in PBS pH 7.4 over a range of Chromogenic tPA Substrate (S-2288) concentrations of 100-500 μM.

The next experiment addresses thrombin (Homo sapiens, UniProt P00734). Description: Thrombin inhibition assay with fluorogenic Thrombin Substrate III, Dixon plot analysis. The experiment is classed as biochemical. Conditions: role: inhibitor; for Ki: PBS pH 7.4, 10% DMSO, read-out: Inhibition constant (Ki); for thrombin inhibition compared to plasmin: thrombin vs plasmin. The protocol:
In this example, commercially available inhibitors shown in Table 1, Tri-AMB and all hetero-multivalent inhibitors were tested for their thrombin inhibition. Inhibition assays were performed using a fixed thrombin concentration of 0.25 U/mL in PBS pH 7.4 over a range of Thrombin Substrate III (fluorogenic) concentrations of 20-50 μM at 10% DMSO.

For another experiment, the target named is T1, Human plasmin (Homo sapiens, UniProt P00747).
T1 construct: a heavy chain (~60 kDa) comprising 5 kringle domains
Nature of the experiment: Plasmin inhibition assay with chromogenic substrate S-2251, Dixon plot / Cornish-Bowden analysis. The class given is biochemical. The conditions noted are these: role: inhibitor; for mode of inhibition (Cornish-Bowden plot): S-2251; for rp: relative potency = Ki^AMB/Ki^multi: benzamidine inhibitors relative to AMB; for rp/n: relative potency/number of benzamidine units: relative to AMB per benzamidine unit; for rp1: relative potency = Ki^AMB/Ki^multi: hetero-bivalent inhibitors relative to AMB; for rp2: relative potency = Ki^TXA or EACA/Ki^multi: hetero-bivalent inhibitors relative to TXA or EACA. As for the experimental part: Inhibition assays were performed on all synthesized multivalent affinity molecules in addition to free AMB and Pentamidine. […] Ki values were calculated for all multivalent affinity molecules via Dixon Plot analysis using the negative x-intersection point. […] A smaller Ki value indicates a higher degree of inhibition. Cornish-Bowden graphs (S/Vo vs I) were also plotted to verify the type of inhibition, i.e., competitive, uncompetitive, non-competitive, or mixed.
Parameters used to quantify multivalency, namely, relative potency (rp), and relative potency per unit (rp/n) were also computed. To evaluate the strength of the multivalent affinity molecules as compared to the monovalent affinity molecules, rp was used and is a ratio of Ki^mono to Ki^multi Ki of monovalent AMB was used for this calculation since AMB was utilized for synthesis of the multivalent affinity molecules. […] To better evaluate multivalency effects, rp/n was also computed to determine the benefit of linking multiple affinity moieties together.
Human plasmin (42.5 nM) over a range of inhibitor concentrations (0-2 mM) and chromogenic substrate concentrations (Chromogenix S-2251 100-500 μM) were utilized for Inhibition assays.
Human plasmin (42.5 nM) over a range of inhibitor concentrations (0-500 μM) and chromogenic substrate concentrations (Chromogenix S-2251 100-500 μM) were utilized for Inhibition assays.
In this example, homo-multivalent and hetero multivalent micelles were synthesized to determine their plasmin inhibition. […] After weighing and mixing the appropriate lipids amounts in chloroform, a lipid film was made by slowly evaporating chloroform while rotating the vial gently under air. The dried lipid film was placed in a desiccator under vacuum overnight. The lipid film was rehydrated using 2 mL PBS and was sonicated for 2 mins while heating at 60° C. to obtain more rapid and less polydisperse micelle formation by self-assembly. […] Human plasmin (42.5 nM) over a range of inhibitor concentrations (0-500 μM) and chromogenic substrate concentrations (Chromogenix S-2251 100-500 μM) were utilized for Inhibition assays.

For experiment [1], the system named is light chain and kringle 5 of plasmin. The conditions noted are these: cited from earlier work.
The next experiment has as its system plasmin. Conditions: role: inhibitor; Alves et al.; cited from earlier work.
Experiment [2] has as its target LBS sites on other kringle domains of plasmin. Conditions: role: inhibitor; cited from earlier work.
For experiment [3] the following is noted: treatment delayed beyond 3 hours; cited from earlier work.
[4] abbreviates: thrombin 0.25 U/mL, Thrombin Substrate III 20-50 μM.
Where [5] appears, read: hetero-bivalent inhibitors, human plasmin 42.5 nM, S-2251 100-500 μM, read-out: Inhibition constant (Ki).
Where [6] appears, read: substrate S-2251 100-500 μM, plasmin 42.5 nM, PBS pH 7.4, benzamidine inhibitors, Dixon plot, read-out: Inhibition constant (Ki).

Values joined by “and” are separate entries in the source; they are usually repeats but may differ in a detail not shown here. Equal values may be shown once. “Also recorded” adds a separate entry of the source. Read-outs that look alike come from different tables or passages of the source.

Sequence of tPA (P00750 36-562, species assumed): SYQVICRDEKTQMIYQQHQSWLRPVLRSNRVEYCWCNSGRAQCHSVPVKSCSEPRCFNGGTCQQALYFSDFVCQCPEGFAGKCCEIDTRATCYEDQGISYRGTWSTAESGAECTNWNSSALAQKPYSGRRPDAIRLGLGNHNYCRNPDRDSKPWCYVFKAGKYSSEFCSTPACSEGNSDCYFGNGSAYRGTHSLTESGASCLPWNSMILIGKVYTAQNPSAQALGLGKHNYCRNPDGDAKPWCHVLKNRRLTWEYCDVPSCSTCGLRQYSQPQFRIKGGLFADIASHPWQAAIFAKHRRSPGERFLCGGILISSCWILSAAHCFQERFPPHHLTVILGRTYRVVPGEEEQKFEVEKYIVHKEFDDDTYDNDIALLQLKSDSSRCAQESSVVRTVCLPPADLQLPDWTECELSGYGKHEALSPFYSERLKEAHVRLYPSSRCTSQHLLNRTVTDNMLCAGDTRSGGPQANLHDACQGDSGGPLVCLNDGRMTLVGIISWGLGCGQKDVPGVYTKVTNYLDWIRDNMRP
T1 sequence (P00747 581-810 limits assumed): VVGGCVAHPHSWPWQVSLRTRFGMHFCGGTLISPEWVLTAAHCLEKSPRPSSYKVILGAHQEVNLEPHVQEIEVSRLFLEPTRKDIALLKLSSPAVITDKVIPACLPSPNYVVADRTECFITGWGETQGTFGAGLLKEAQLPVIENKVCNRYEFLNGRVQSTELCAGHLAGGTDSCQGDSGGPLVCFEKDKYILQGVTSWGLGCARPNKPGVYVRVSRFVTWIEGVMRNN
T1 sequence (P00747 97-580 limits assumed): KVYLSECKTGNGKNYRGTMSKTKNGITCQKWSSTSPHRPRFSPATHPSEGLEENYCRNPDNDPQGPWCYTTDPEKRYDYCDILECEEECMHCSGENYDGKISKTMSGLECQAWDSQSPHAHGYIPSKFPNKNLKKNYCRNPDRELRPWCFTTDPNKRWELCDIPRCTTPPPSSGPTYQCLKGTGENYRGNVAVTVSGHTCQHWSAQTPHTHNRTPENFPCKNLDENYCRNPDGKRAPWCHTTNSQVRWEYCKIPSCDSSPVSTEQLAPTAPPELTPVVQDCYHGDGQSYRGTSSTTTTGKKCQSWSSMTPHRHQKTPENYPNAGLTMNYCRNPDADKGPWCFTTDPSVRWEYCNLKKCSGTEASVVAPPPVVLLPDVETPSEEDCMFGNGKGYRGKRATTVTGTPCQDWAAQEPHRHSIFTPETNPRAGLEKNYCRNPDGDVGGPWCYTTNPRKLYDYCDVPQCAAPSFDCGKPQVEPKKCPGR

By Ki is commonly meant the dissociation constant of the complex between target and ligand, obtained from inhibition or displacement. On to `N=C(N)c1ccc(N)cc1` [4-amino benzamidine, 4-Aminobenzamidine, reference compound], for which the Ki at tPA worked out at 148 ± 0.9 µM.

On to `N=C(N)c1ccc(C(=O)O)cc1` [4-carboxy benzamidine, 4-Carboxybenzamidine, reference compound], for which the Ki at thrombin (setting [4]) came out at 151 ± 4 µM.

As for `N=C(N)c1ccc(CN)cc1` [AMB, 4-aminomethyl benzamidine, reference compound], the Ki on tPA came to 5210 ± 161 µM; on thrombin (setting [4]), 344 ± 33 µM; at Human plasmin (setting [5]), 1.4 ± 0.166 mM; at Human plasmin (setting [6]), 1.4 mM. Further, the “mode of inhibition (Cornish-Bowden plot)” value at Human plasmin (plasmin 42.5 nM, PBS pH 7.4) was “competitive inhibitor”.

As for `N=C(N)c1ccccc1` [Benzamidine], the subsite binding entry in experiment [1] was “weak subsite binding”.

Regarding `NC[C@H]1CC[C@H](C(=O)NCCCC[C@H](NC(=O)[C@H]2CC[C@H](CN)CC2)C(N)=O)CC1` [Bis-TXA], the Ki came to 6.4 ± 2.03 mM at Human plasmin (TXA affinity molecules, human plasmin 42.5 nM, S-2251 100-500 μM, read-out: Inhibition constant (Ki)) and 6.4 mM on Human plasmin (human plasmin 42.5 nM, S-2251 100-500 μM, text value in mM, read-out: Ki (active site inhibition of plasmin)). Further, the “rp: relative potency = Ki^TXA/Ki^multi” value on Human plasmin (plasmin, TXA affinity molecules relative to TXA, S-2251 100-500 μM) came to 3.3. Also, on Human plasmin (plasmin, relative to TXA per TXA unit, S-2251 100-500 μM), the “rp/n: relative potency/number of TXA units” value was 1.7.

Consider `N=C(N)c1ccc(CNC(=O)CCOCCOCCC(=O)NCc2ccc(C(=N)N)cc2)cc1` [Bis-dPEG2-AMB], for which the “mode of inhibition (Cornish-Bowden plot)” value on Human plasmin (plasmin 42.5 nM, PBS pH 7.4) is recorded as “competitive inhibition; also recorded: competitive inhibitor”. Moreover, at Human plasmin (plasmin, S-2251 100-500 μM), the “rp: relative potency = Ki^AMB/Ki^multi” value was 25.2 and the “rp/n: relative potency/number of benzamidine units” value is recorded as 12.6.

In the case of `NCCCCCC(=O)O` [EACA, ε-Aminocaproic Acid, reference compound], at thrombin (setting [4]), the Ki is over 10000 µM.

Take `N=C(N)c1ccc(CNC(=O)CCOCCOCCOCCOCCNC(=O)CCCCCN)cc1` [EACA-dPEG4-AMB]: the Ki at thrombin (setting [4]) came out at 5.6 ± 0.2 µM. Besides, the Ki at Human plasmin (setting [5]) turned out to be 0.233 ± 0.005 mM. Moreover, on Human plasmin (plasmin, S-2251 100-500 μM), the “rp1: relative potency = Ki^AMB/Ki^multi” value is recorded as 6 and the “rp2: relative potency = Ki^TXA or EACA/Ki^multi” value came out at 305.

`N=C(N)c1ccc(OCCCCCOc2ccc(C(=N)N)cc2)cc1` [Pentamidine, reference compound]: at tPA, the “tPA inhibition relative to another inhibitor” value is “stronger inhibitor than Tri-AMB”, the Ki was found to be 48 ± 12 µM and the “tPA inhibition compared to plasmin” value is “weaker tPA inhibitors compared to plasmin”. Besides, in the experiment on plasmin, the “fold stronger plasmin inhibitor than the strongest monovalent benzamidine” value was 15 fold. At thrombin (setting [4]), the “thrombin inhibition relative to another inhibitor” value is recorded as “slightly stronger thrombin inhibitor than Tri-AMB” and the Ki came out at 4.5 ± 2.3 µM. On thrombin, the “thrombin inhibition compared to plasmin” value is on record as “slightly weaker thrombin inhibitors compared to plasmin”. For the same compound, the “mode of inhibition (Cornish-Bowden plot)” value at Human plasmin (plasmin 42.5 nM, PBS pH 7.4) was “competitive inhibitor”. For the same compound, on Human plasmin (plasmin, S-2251 100-500 μM), the “rp: relative potency = Ki^AMB/Ki^multi” value amounted to 664.3 and the “rp/n: relative potency/number of benzamidine units” value came to 332.1. Further, the Ki on Human plasmin (setting [6]) was 0.0021 mM and 0.0026 mM.

Regarding `NC[C@H]1CC[C@H](C(=O)O)CC1` [TXA, Tranexamic acid], in experiment [2], the Ki is 0.75 µM. Besides, in experiment [3], the “clinical trial outcome of delayed treatment” value was “ineffective or harmful”.

For `N=C(N)c1ccc(CNC(=O)CCOCCOCCOCCOCCNC(=O)[C@H]2CC[C@H](CN)CC2)cc1` [TXA-dPEG4-AMB], the Ki on tPA turned out to be 230 ± 30 µM; at thrombin (setting [4]), 14.5 ± 6.7 µM; on Human plasmin (setting [5]), 0.042 ± 0.0124 mM. The “rp1: relative potency = Ki^AMB/Ki^multi” value on Human plasmin (plasmin, S-2251 100-500 μM) stood at 33. Besides, the “rp2: relative potency = Ki^TXA or EACA/Ki^multi” value on Human plasmin (plasmin, S-2251 100-500 μM) came to 509. Also, the “fold stronger than m-dPEG4-AMB (plasmin inhibition)” value on Human plasmin (plasmin, relative to m-dPEG4-AMB, S-2251 100-500 μM) is “over 7 fold”.

For the compound `N=C(N)c1ccc(CNC(=O)CCOCCOCCOCCOCCOCCOCCOCCOCCNC(=O)[C@H]2CC[C@H](CN)CC2)cc1` [TXA-dPEG8-AMB], the Ki at Human plasmin (setting [5]) was 0.099 ± 0.0009 mM. Besides, at Human plasmin (plasmin, S-2251 100-500 μM), the “rp1: relative potency = Ki^AMB/Ki^multi” value came to 14 and the “rp2: relative potency = Ki^TXA or EACA/Ki^multi” value worked out at 216.

Regarding `N=C(N)c1ccc(CNC(=O)CCOCCOCCOCCOCCOCCOCCOCCOCCOCCOCCOCCOCCNC(=O)[C@H]2CC[C@H](CN)CC2)cc1` [TXA-dPEG12-AMB], the “tPA inhibition relative to another inhibitor” value on tPA is on record as “stronger tPA inhibitor than TXA-PEG4-AMB”. Further, the Ki at tPA worked out at 128 ± 11 µM; at thrombin (setting [4]), 46 ± 1.5 µM; on Human plasmin (setting [5]), 0.207 mM. In addition, the “rp1: relative potency = Ki^AMB/Ki^multi” value on Human plasmin (plasmin, S-2251 100-500 μM) stood at 7. Also, on Human plasmin (plasmin, S-2251 100-500 μM), the “rp2: relative potency = Ki^TXA or EACA/Ki^multi” value amounted to 103.

Take `N=C(N)c1ccc(CNC(=O)CCOCCOCCOCCOCCOCCOCCOCCOCCOCCOCCOCCOCCOCCOCCOCCOCCOCCOCCOCCOCCOCCOCCOCCOCCOCCOCCOCCOCCOCCOCCOCCOCCOCCOCCOCCOCCNC(=O)[C@H]2CC[C@H](CN)CC2)cc1` [TXA-dPEG36-AMB]: the Ki at thrombin (setting [4]) was found to be 78 ± 1.5 µM. The Ki at Human plasmin (setting [5]) is 0.075 mM and 0.0754 mM. For the same compound, on Human plasmin (plasmin, S-2251 100-500 μM), the “rp1: relative potency = Ki^AMB/Ki^multi” value worked out at 19 and the “rp2: relative potency = Ki^TXA or EACA/Ki^multi” value was 285.

For `N=C(N)c1ccc(CNC(=O)CN(CC(=O)NCc2ccc(C(=N)N)cc2)CC(=O)NCc2ccc(C(=N)N)cc2)cc1` [Tri-AMB], the Ki on tPA turned out to be 112 ± 21 µM; at thrombin (setting [4]), 10.6 ± 2 µM. The “tPA inhibition compared to plasmin” value on tPA was “weaker tPA inhibitors compared to plasmin”. For the same compound, the “thrombin inhibition compared to plasmin” value on thrombin is recorded as “slightly weaker thrombin inhibitors compared to plasmin”.

As to `N=C(N)c1ccc(CNC(=O)CCOCCOCCOCCOCCNC(=O)CN(CC(=O)NCCOCCOCCOCCOCCC(=O)NCc2ccc(C(=N)N)cc2)CC(=O)NCCOCCOCCOCCOCCC(=O)NCc2ccc(C(=N)N)cc2)cc1` [Tri-dPEG4-AMB], the “mode of inhibition (Cornish-Bowden plot)” value at Human plasmin (plasmin 42.5 nM, PBS pH 7.4) was “competitive inhibitor”. At Human plasmin (plasmin, S-2251 100-500 μM), the “rp: relative potency = Ki^AMB/Ki^multi” value turned out to be 27.6 and the “rp/n: relative potency/number of benzamidine units” value is on record as 9.2. Besides, at Human plasmin (setting [6]), the Ki is 0.0505 ± 0.014 mM.

Consider `COCCOCCOCCOCCOCCOCCOCCOCCOCCOCCOCCOCCC(=O)NCc1ccc(C(=N)N)cc1` [m-dPEG12-AMB], for which the “mode of inhibition (Cornish-Bowden plot)” value on Human plasmin (plasmin 42.5 nM, PBS pH 7.4) is reported as “competitive inhibitor”. Moreover, at Human plasmin (plasmin, S-2251 100-500 μM), the “rp: relative potency = Ki^AMB/Ki^multi” value was 3.9 and the “rp/n: relative potency/number of benzamidine units” value was determined as 3.9. The inhibitory constant (Ki) at Human plasmin (setting [6]) came out at 0.36 ± 0.0352 mM.

With `COCCOCCOCCOCCOCCOCCOCCOCCOCCOCCOCCOCCOCCOCCOCCOCCOCCOCCOCCOCCOCCOCCOCCOCCC(=O)NCc1ccc(C(=N)N)cc1` [m-dPEG24-AMB], the “mode of inhibition (Cornish-Bowden plot)” value on Human plasmin (plasmin 42.5 nM, PBS pH 7.4) is on record as “competitive inhibitor”. Besides, on Human plasmin (plasmin, S-2251 100-500 μM), the “rp: relative potency = Ki^AMB/Ki^multi” value amounted to 2.7 and the “rp/n: relative potency/number of benzamidine units” value is recorded as 2.7. Besides, the Ki at Human plasmin (setting [6]) was 0.521 ± 0.0849 mM.
